Results as given in patent US9695154B2, “Heteroaryl inhibitors of sumo activating enzyme” (MILLENNIUM PHARMACEUTICALS, INC., priority 2013, dated 2017).

Target: T1, recombinant human SAE enzyme (Homo sapiens, UniProt Q9UBT2)
T1 sequence (Q9UBT2 1-640): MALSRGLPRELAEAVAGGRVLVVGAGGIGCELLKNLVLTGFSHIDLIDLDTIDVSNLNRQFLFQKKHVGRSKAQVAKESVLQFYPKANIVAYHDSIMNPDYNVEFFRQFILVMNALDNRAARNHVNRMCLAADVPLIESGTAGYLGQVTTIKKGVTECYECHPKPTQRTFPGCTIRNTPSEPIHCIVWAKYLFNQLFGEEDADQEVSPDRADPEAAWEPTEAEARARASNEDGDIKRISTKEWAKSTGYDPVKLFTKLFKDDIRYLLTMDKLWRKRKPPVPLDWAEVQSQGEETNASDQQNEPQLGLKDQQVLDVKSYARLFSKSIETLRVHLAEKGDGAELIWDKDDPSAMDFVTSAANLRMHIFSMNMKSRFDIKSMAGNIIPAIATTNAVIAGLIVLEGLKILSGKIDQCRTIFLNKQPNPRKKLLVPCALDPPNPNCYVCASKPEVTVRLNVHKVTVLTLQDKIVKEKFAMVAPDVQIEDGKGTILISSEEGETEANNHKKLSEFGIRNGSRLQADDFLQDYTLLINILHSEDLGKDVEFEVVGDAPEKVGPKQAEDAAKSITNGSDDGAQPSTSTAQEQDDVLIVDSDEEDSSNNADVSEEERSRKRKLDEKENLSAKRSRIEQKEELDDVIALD
T1 sequence (Q9UBE0 1-346 partner): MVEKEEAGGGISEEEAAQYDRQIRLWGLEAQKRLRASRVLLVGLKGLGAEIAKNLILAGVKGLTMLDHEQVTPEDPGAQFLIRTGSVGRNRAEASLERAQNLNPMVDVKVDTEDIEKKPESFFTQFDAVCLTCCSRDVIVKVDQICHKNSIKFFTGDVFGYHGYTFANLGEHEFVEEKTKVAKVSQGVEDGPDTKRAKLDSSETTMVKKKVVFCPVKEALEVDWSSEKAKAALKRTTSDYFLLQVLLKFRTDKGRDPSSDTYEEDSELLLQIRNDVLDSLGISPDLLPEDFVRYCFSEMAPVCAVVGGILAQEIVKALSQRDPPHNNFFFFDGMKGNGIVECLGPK
Experiment: SAE HTRF Enzyme Assay
Format: biochemical
Settings: for IC50: class symbols A-C; for inhibition at 0.111 µM: compound concentration 0.111 μM, read-out: Percent Inhibition
How it was run: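 SAE 0.11 nM; ATP 0.5 μM; Sumo-Flag 0.125 μM; Ubc9-GST 0.01 μM; 250 μM GSH, 5 mM MgCl2, pH 7.5. 105 min, 24° C. EDTA/KF stop plus Eu/APC antibodies, 2 h, TR-FRET. % inhibition or IC50.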

Structure (SMILES) | IC50 | inhibition at 0.111 µM
NS(=O)(=O)OC[C@H]1C[C@@H](Nc2ncncc2C(=O)c2ccn(CC3CCOCC3)c2)[C@@H](F)[C@@H]1O [Compound I-222, {(1R,2R,3R,4R)-3-fluoro-2-hydroxy-4-[(5-{[1-(tetrahydro-2H-pyran-4-ylmethyl)-1H-pyrrol-3-yl]carbonyl}pyrimidin-4-yl)amino]cyclopentyl}methyl sulfamate] | 10 to 100 nM | 63%
NS(=O)(=O)OC[C@H]1C[C@@H](Nc2ccncc2C(=O)c2ccn(Cc3cccc(Br)c3)n2)C[C@@H]1O [Compound I-223, {(1R,2S,4R)-4-[(3-{[1-(3-bromobenzyl)-1H-pyrazol-3-yl]carbonyl}pyridin-4-yl)amino]-2-hydroxycyclopentyl}methyl sulfamate] | < 10 nM | 99%
NS(=O)(=O)OC[C@H]1C[C@@H](Nc2ncncc2C(=O)c2ccn(Cc3cccc(OC(F)F)c3)c2)[C@@H](F)[C@@H]1O [Compound I-224, [(1R,2R,3R,4R)-4-{[5-({1-[3-(difluoromethoxy)benzyl]-1H-pyrrol-3-yl}carbonyl)pyrimidin-4-yl]amino}-3-fluoro-2-hydroxycyclopentyl]methyl sulfamate] | < 10 nM | 99%
NS(=O)(=O)OC[C@H]1C[C@@H](Nc2ncncc2C(=O)c2ccn(Cc3c(F)ccc(F)c3F)n2)[C@H](O)[C@@H]1O [Compound I-225, {(1R,2R,3S,4R)-2,3-dihydroxy-4-[(5-{[1-(2,3,6-trifluorobenzyl)-1H-pyrazol-3-yl]carbonyl}pyrimidin-4-yl)amino]cyclopentyl}methyl sulfamate] | < 10 nM | > 99%
NS(=O)(=O)OC[C@H]1C[C@@H](Nc2ncncc2C(=O)c2ccn(Cc3ccccc3C(F)(F)F)n2)C[C@@H]1O [Compound I-226, [(1R,2S,4R)-2-hydroxy-4-{[5-({1-[2-(trifluoromethyl)benzyl]-1H-pyrazol-3-yl}carbonyl)pyrimidin-4-yl]amino}cyclopentyl]methyl sulfamate] | 10 to 100 nM | 85%
NS(=O)(=O)OC[C@H]1C[C@@H](Nc2ncncc2C(=O)c2ccn(Cc3ccccc3)n2)[C@H](F)[C@@H]1O [Compound I-227, [(1R,2R,3S,4R)-4-({5-[(1-benzyl-1H-pyrazol-3-yl)carbonyl]pyrimidin-4-yl}amino)-3-fluoro-2-hydroxycyclopentyl]methyl sulfamate] | < 10 nM | 97%
CC#CCn1ccc(C(=O)c2cncnc2N[C@@H]2C[C@H](COS(N)(=O)=O)[C@@H](O)C2)n1 [Compound I-228, {(1R,2S,4R)-4-[(5-{[1-(but-2-yn-1-yl)-1H-pyrazol-3-yl]carbonyl}pyrimidin-4-yl)amino]-2-hydroxycyclopentyl}methyl sulfamate] | 10 to 100 nM | 72%
NS(=O)(=O)OC[C@H]1C[C@@H](Nc2ncncc2C(=O)c2ccn(Cc3cccc(Oc4ccc(F)cc4)c3)n2)[C@H](O)[C@@H]1O [Compound I-229, [(1R,2R,3S,4R)-4-{[5-({1-[3-(4-fluorophenoxy)benzyl]-1H-pyrazol-3-yl}carbonyl)pyrimidin-4-yl]amino}-2,3-dihydroxycyclopentyl]methyl sulfamate] | 10 to 100 nM | 88%
NS(=O)(=O)OC[C@H]1C[C@@H](Nc2ncncc2C(=O)c2ccn(Cc3cc(C(F)(F)F)ccc3F)n2)[C@H](O)[C@@H]1O [Compound I-230, [(1R,2R,3S,4R)-4-{[5-({1-[2-fluoro-5-(trifluoromethyl)benzyl]-1H-pyrazol-3-yl}carbonyl)pyrimidin-4-yl]amino}-2,3-dihydroxycyclopentyl]methyl sulfamate] | < 10 nM | 98%
NS(=O)(=O)OC[C@H]1C[C@@H](Nc2ncncc2C(=O)c2ccn(Cc3ccc(F)o3)c2)[C@@H](F)[C@@H]1O [Compound I-231, [(1R,2R,3R,4R)-3-fluoro-4-{[5-({1-[(5-fluoro-2-furyl)methyl]-1H-pyrrol-3-yl}carbonyl)pyrimidin-4-yl]amino}-2-hydroxycyclopentyl]methyl sulfamate] | < 10 nM | 99%
